# Measured values published in patent publication US7754856B2, “Human sodium-dependent bile acid transporter proteins” (Takeda Pharmaceutical Company Limited, priority 2002, dated 2010).
# Molecular target: T1, human TCH230 (Homo sapiens, UniProt Q3KNW5)
# T1 construct: expressed in transfected cells
# T1 sequence (Q3KNW5 1-377): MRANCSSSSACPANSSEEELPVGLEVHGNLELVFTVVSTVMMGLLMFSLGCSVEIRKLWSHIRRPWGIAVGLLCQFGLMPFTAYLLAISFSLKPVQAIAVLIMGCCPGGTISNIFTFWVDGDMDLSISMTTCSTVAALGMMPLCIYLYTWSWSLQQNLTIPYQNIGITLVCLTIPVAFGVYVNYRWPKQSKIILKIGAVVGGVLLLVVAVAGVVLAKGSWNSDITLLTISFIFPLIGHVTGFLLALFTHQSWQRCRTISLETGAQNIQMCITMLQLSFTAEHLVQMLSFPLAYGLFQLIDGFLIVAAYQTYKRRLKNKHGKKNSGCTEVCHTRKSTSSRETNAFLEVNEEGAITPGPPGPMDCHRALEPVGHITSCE
# Assay: Incorporation of labeled steroid sulfates into human TCH230-expressing CHO cell strain
# Format: cell-based
# Details: for incorporation into human TCH230 expressing CHO cells (radioactivity): CHO clone No. 19-6, in the presence of 140 mM NaCl (NaCl buffer vs NMDG buffer, vs Mock cells), 37° C., 1 hour, values only in FIG. 17/18; for substrate of the novel sodium-dependent bile acid transporter protein: summary statement in disclosure
# Description: Incorporation of [6,7-^3H(N)]-estrone sulfate and [1,2,6,7-^3H(N)]-dehydroepiandrosterone sulfate (hereinafter also referred to as [1,2,6,7-^3H(N)]-DHEA-S) into the human TCH230 (SEQ ID NO:1)-expressing CHO cell strain clone No. 19-6 obtained in Example 19 was measured.
# The human TCH230 (SEQ ID NO:1) expressing CHO cell strain clone No. 19-6 was inoculated at a density of 4×10^4 cells/well in a 96 well plate, and cultured at 37° C. for 24 hours in MEMα medium (Invitrogen, Inc.) containing 5 mM sodium butyrate. The medium was removed, and the cells were washed 3 times with 150 μL NMDG buffer (140 mM N-methyl-D(−)-glucamine, 5.4 mM KCl, 0.34 mM Na2HPO4, 0.44 mM KH2PO4, 1.26 mM CaCl2, 0.41 mM MgSO4, 0.49 mM MgCl2, 5.55 mM glucose, pH 7.4-7.6), and incubated in 150 μL NMDG buffer at 37° C. for 1 hour. The buffer was replaced with 90 μL NaCl buffer (140 mM NaCl, 5.4 mM KCl, 0.34 mM Na2HPO4, 0.44 mM KH2PO4, 1.26 mM CaCl2, 0.41 mM MgSO4, 0.49 mM MgCl2, 5.55 mM glucose, pH 7.4-7.6) or 90 μL NMDG buffer, followed by adding 10 μL of 2.5 μM estrone sulfate, ammonium salt, [6,7-^3H(N)]— or 1.37 μM dehydroepiandrosterone sulfate, sodium salt, [1,2,6,7-^3H(N)]— (all of which are available from Perkin-Elmer Life Science). The cells were incubated at 37° C. for 1 hour, and the buffer was removed, then washed 3 times with 200 μL PBS (Takara Bio) and lysed with 10 μL of 0.1N NaOH. 100 μL SuperMix scintillator (Perkin-Elmer Life Science) was added thereto and stirred, and the amount of [6,7-^3H(N)]-estrone sulfate or [1,2,6,7-^3H(N)]-DHEA-S incorporated into the cells was measured in terms of radioactivity. This measurement was carried out with 1450 MICROBETA PLUS LIQUID SCINTILLATION COUNTER (Perkin-Elmer Life Science). CHO dhfr− cells into which vector pcDNA3.1(+) had been introduced (also referred to hereinafter as Mock) was also subjected to the same procedure and measured for radioactivity.
Substance,incorporation into human TCH230 expressing CHO cells (radioactivity),substrate of the novel sodium-dependent bile acid transporter protein
"[6,7-^3H(N)]-estrone sulfate",incorporate,substrate
"[1,2,6,7-^3H(N)]-dehydroepiandrosterone sulfate [[1,2,6,7-^3H(N)]-DHEA-S]",incorporate,substrate
